Source: paper PMC3404088, “Development of a Small D-Enantiomeric Alzheimer’s Amyloid-β Binding Peptide Ligand for Future In Vivo Imaging Applications” (PLoS ONE, 2012)
“Also recorded” adds a separate entry of the source. Square brackets hold non-standard residues; d marks the D form. Peptide text beside a SMILES is read from it. * marks the point of attachment. 5FAM = O=C1OC2(c3ccc(O)cc3Oc3cc(O)ccc32)c2ccc(C(=O)*)cc21

Experiments:
Aβ1–42 monomers = target: T1, Aβ1–42 monomers (Homo sapiens, UniProt P05067); assay: ELISA, compound binding to Aβ1–42 peptide film (predominantly monomers); conditions: 10 µg/ml compound; optical density after pNPP incubation; value of one single experiment only
T1 construct: Aβ1–42 peptide film was prepared from lyophilized powder (Bachem); purchased Bachem
Procedure: (§1) Aβ1–42 peptide film was prepared from lyophilized powder (Bachem). The powder was reconstituted in HFIP to a final concentration of 1 mM, sonicated for 15 min at room temperature (RT), agitated overnight (ON), and aliquoted into non-siliconized microcentrifuge tubes (12 µl corresponding to 55 µg). The HFIP was evaporated under a stream of argon. The resulting peptide film was vacuum dried for 10 min and stored at -80°C. For direct use as peptide film, an aliquot of Aβ1–42 peptide film was reconstituted with 0.54% dimethylsulphoxide (DMSO) in phosphate buffered saline (PBS) to obtain a final concentration of 10 µg/ml and then used for the ELISA as described below. To prepare fibrils, 55 µg aliquot of peptide film was dissolved in 55 µl of 50 mM Tris-HCl, pH 7.4 and incubated at 37°C for five days. Next, the sample was centrifuged (10’000 rpm for 5 min) and the pellet was diluted in 50 mM Tris-HCl, pH 7.4.
(§2) Aβ1–42 peptide preparations were diluted in 0.05 M bicarbonate-carbonate buffer pH 9.6, to the final concentration of 10 µg/ml and coated onto ELISA plates (MaxiSorp, Nunc). After blocking (PBS; 0.05% Tween; 1% BSA), plates were incubated with 2- or 3-fold dilutions of D-compounds (starting concentration: 10 µg/ml) and incubated for 2 h at 37°C. Plates were then washed and incubated for 2 h at 37°C with the detection antibody Rabbit-a-fluorescein isothiocyanate-AP (Sigma; 1∶10’000 dilution) followed by the incubation for 2.5 h at room temperature (RT) with 1 mg/ml of phosphatase substrate (pNPP, Sigma). The absorbance signal was read at 405 nm wavelength using a Tecan plate reader (Tecan Group Lt, Männedorf, Switzerland).
(§3) ELISA plates (MaxiSorp, Nunc) were coated with anti-Aβ antibody 6E10 (Covance) at a concentration of 5 µg/ml. Either monomeric Aβ1–42 peptide film (mainly monomeric) or Aβ1–42 fibrils, which were prepared as described above, were diluted in PBS to the final concentration 10 µg/ml and mixed with 10-fold dilutions of D-peptide compounds in Eppendorf tubes (starting concentration of D-peptide compounds: 10 µg/ml). The tubes were incubated for 2 h at 37°C. Next, samples were distributed onto the ELISA plate and kept for 2 h at 37°C. Plates were washed and incubated for 2 h at 37°C with the detection antibody Rabbit-a-fluorescein isothiocyanate-AP (Sigma; 1∶10′000 dilution) following the incubation overnight (ON) at RT with 1 mg/ml of phosphatase substrate (pNPP, Sigma). The absorbance signal was read at 405 nm wavelength using the Tecan plate reader (Tecan Group Ltd, Männedorf, Switzerland).
(§4) To verify the SPR results, ELISA was employed to assay the interaction of the ACI-80 derivatives ACI-80-Kϕ, ACI-81-Kϕ, ACI-82-Kϕ, ACI-83-Kϕ, ACI-84-Kϕ, ACI-85-Kϕ, ACI-86-Kϕ, ACI-87-Kϕ, [^19F]-ACI-87-Kϕ, ACI-88-Kϕ, [^19F]-ACI-88-Kϕ, ACI-89-Kϕ, [^19F]-ACI-89-Kϕ) with Aβ1–42 fibrils and Aβ peptide film in solution containing mostly monomers and smaller oligomers (Table 4). To avoid any bias by possible conformational influences the ELISA has been carried out in two versions, once with immobilized antibody and once with immobilized Aβ1–42 as described in the methods section. Both assays yielded similar results and confirmed each other. […] Panels A and B in Figure 2 show the results for binding to Aβ1–42 fibrils and panels C and D in Figure 2 show the results for binding to freshly prepared Aβ1–42 peptide film, which contains mostly monomeric Aβ. In Table 4, the performance of the peptides is expressed relative to that of ACI-80-Kϕ.

Aβ1–42 fibrils = target: T2, Aβ1–42 fibrils (Homo sapiens, UniProt P05067); assay: ELISA, compound binding to Aβ1–42 fibrils; conditions: 10 µg/ml compound; optical density after pNPP incubation; value of one single experiment only
T2 construct: Aβ1–42 was dissolved in hexafluoroisopropanol (HFIP)
Procedure: as §1, §2, §3, §4

[1] = target: T3, Aβ plaques in brain sections of transgenic APP (V717I) x PS1 (A246E) mice (Homo sapiens, UniProt P05067); assay: Ex vivo staining of mouse brain slices by FITC labeled compounds; conditions: for staining / recognition of Aβ plaques: 0.01 mg/ml ϕ-labeled compound, 2 h, 10 µm cryostat sections; for staining / recognition of Aβ plaques / background signal / staining pattern: fluorescence microscopy; for background signal: 0.01 mg/ml; for overlay with 6E10 anti-Aβ staining: co-staining with 6E10 (2 µg/ml) and DAPI, triple overlay
T3 construct: triple image overlay of respective stains reveal that the ϕ-compounds identify plaques; from tissue; host or cells: brain cryosections of APP (V717I) x PS1 (A246E) transgenic mice
Procedure: In vitro tissue section staining was performed according to previously described protocols with slight modifications. Mouse brains were obtained from male transgenic (tg) APP (London mutation V717l) x PS1 (A246E) mice aged 13–21 months and from female wild type (wt) mice aged 9–10 months. The mice were anesthetized and transcardially perfused with saline. The brains were removed and snap frozen. 10 µm thick sagittal cryostat sections through the whole mouse brain were produced and mounted onto glass slides. ϕ-labeled compounds were applied to investigate binding. Thus, the slides were thawed, washed in PBS and fixed in 4% paraformaldehyde (20 min at RT) just before incubation with ϕ-labeled compounds. One series of sections was treated only with fluorescent compounds (0.01 mg/ml, incubation time 2 h) while another series of sections were incubated with anti-Aβ antibody 6E10 at 1∶500 dilution (SIG-39320, Covance; final antibody concentration was 2 µg/ml) in addition to ϕ-labeled compounds (0.01 mg/ml). The slices were washed in PBS. The sections incubated with ϕ-labeled compound and 6E10 antibody were further incubated for 2 h at RT with Goat-anti-Mouse IgG1– AlexaFluor 555 (A21127, Invitrogen, 1∶1000 dilution) and washed with PBS. Finally, all sections were counterstained with 4’–6-Diamidino-2-phenylindole (DAPI, 32670, Sigma, incubation 5 min at RT) for the visualization of cell nuclei. The slides were mounted using Prolong Gold Antifade mounting medium (P36930, Invitrogen) and coverslipped.
The tissues were analyzed using a fluorescent Zeiss Axioscope 2 Plus microscope using the AxioVision 4 image analysis software.
A further series of slices was stained using a primary anti-fluorescein isothiocyanate antibody combined with alkaline phosphatase reaction for visualization of ϕ-labeled peptides. Briefly, the sections were treated with blocking solution (10% normal goat serum (NGS), 0.25% Triton X-100 in PBS for 1 h at RT) and incubated with primary antibody (rabbit-anti-FITC; Invitrogen) at a dilution of 1∶500. The sections were then washed and incubated for 2 h at RT with the secondary antibody goat-anti-rabbit-alkaline phosphatase (Sigma) at a dilution of 1∶100. After washing, the slides were incubated with BCIP/NBT substrate (Sigma) for 3 min, washed, dehydrated and mounted using Eukitt mounting medium.

| SMILES | binding value, binding Aβ1–42 monomers (Aβ1–42 monomers) | binding value, binding Aβ1–42 fibrils (Aβ1–42 fibrils) | staining / recognition of Aβ plaques [1] | background signal [1] | overlay with 6E10 anti-Aβ staining [1] | staining pattern [1] | plaque detection via anti-fluorescein isothiocyanate antibody and alkaline phosphatase ([1]; tg mouse brain slices immersed in ϕ-peptide, BCIP/NBT chromogenic detection, light microscope) |
| --- | --- | --- | --- | --- | --- | --- | --- |
| CC[C@@H](C)[C@@H](NC(=O)[C@@H](Cc1c[nH]cn1)NC(=O)[C@@H](CCCNC(=N)N)NC(=O)[C@@H](Cc1ccc(O)cc1)NC(=O)[C@@H](Cc1c[nH]cn1)NC(=O)[C@@H](CO)NC(=O)[C@H](N)CCC(N)=O)C(=O)N[C@H](CO)C(=O)N1CCC[C@@H]1C(=O)N[C@H](C)C(=O)N[C@H](CCC(N)=O)C(=O)N[C@H](CCCCN)C(=O)N[C@H](CCCCNC(=O)c1ccc2c(c1)C(=O)OC21c2ccc(O)cc2Oc2cc(O)ccc21)C(=O)O [ACI-87-Kϕ] (H-[dQ][dS][dH][dY][dR][dH][dI][dS][dP][dA][dQ][dK][dK](5FAM)-OH; N-terminus and C-terminus assumed) | *0.79 | *0.93 | readily recognized amyloid plaques | high background fluorescence | nearly no overlay with 6E10 anti-Aβ was detected |  |  |
| CC[C@@H](C)[C@@H](NC(=O)[C@@H](Cc1c[nH]cn1)NC(=O)[C@@H](CCCNC(=N)N)NC(=O)[C@@H](Cc1ccc(O)cc1)NC(=O)[C@@H](Cc1c[nH]cn1)NC(=O)[C@H](N)CO)C(=O)N[C@H](CO)C(=O)N1CCC[C@@H]1C(=O)N[C@H](C)C(=O)N[C@H](CCC(N)=O)C(=O)N[C@H](CCCCN)C(=O)N[C@H](CCCCNC(=O)c1ccc2c(c1)C(=O)OC21c2ccc(O)cc2Oc2cc(O)ccc21)C(=O)O [ACI-88-Kϕ] (H-[dS][dH][dY][dR][dH][dI][dS][dP][dA][dQ][dK][dK](5FAM)-OH; N-terminus and C-terminus assumed) | *1.29 | *1.78 | stained plaques most intensively; also recorded: readily recognized amyloid plaques | lowest background signal of all peptides | match 6E10 anti-Aβ staining quite well; also recorded: good overlap with 6E10 Aβ staining | stained the core of plaques |  |
| CC[C@@H](C)[C@@H](NC(=O)[C@@H](Cc1c[nH]cn1)NC(=O)[C@@H](CCCNC(=N)N)NC(=O)[C@@H](Cc1ccc(O)cc1)NC(=O)[C@@H](Cc1c[nH]cn1)NC(=O)[C@@H](CO)NC(=O)[C@H]1CCCN1)C(=O)N[C@H](CO)C(=O)N1CCC[C@@H]1C(=O)N[C@H](C)C(=O)N[C@H](CCC(N)=O)C(=O)N[C@H](CCCCN)C(=O)N[C@H](CCCCNC(=O)c1ccc2c(c1)C(=O)OC21c2ccc(O)cc2Oc2cc(O)ccc21)C(=O)O [ACI-89-Kϕ] (H-[dP][dS][dH][dY][dR][dH][dI][dS][dP][dA][dQ][dK][dK](5FAM)-OH; N-terminus and C-terminus assumed) | *1.06 | *1.49 | stained plaques most intensively; also recorded: readily recognized amyloid plaques |  | match 6E10 anti-Aβ staining quite well | more similar to the one of 6E10 which also stains diffuse Aβ plaques | abundant chromogenic deposits |
